The values that follow come from ChEMBL document CHEMBL1201862, “PubChem BioAssay data set” (2004).

Activity calls are given as the source filed them. Some results are limits rather than exact numbers.

In test [1] the target is T1, Mannose-6-phosphate isomerase (Homo sapiens, UniProt P34949).
T1 sequence (P34949 whole entry): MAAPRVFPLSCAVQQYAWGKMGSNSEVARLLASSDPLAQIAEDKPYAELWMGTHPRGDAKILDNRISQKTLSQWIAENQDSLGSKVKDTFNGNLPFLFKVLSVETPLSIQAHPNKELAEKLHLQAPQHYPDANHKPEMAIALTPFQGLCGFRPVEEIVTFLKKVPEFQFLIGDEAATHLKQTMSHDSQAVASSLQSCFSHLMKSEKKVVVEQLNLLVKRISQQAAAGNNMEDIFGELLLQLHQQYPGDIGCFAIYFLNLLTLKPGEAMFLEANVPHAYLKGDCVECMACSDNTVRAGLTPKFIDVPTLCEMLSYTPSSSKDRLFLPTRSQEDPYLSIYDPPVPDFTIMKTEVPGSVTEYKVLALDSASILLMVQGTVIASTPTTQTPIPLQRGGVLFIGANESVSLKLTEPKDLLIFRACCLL
In words: inhibitors of human PMI, primary screen, biochemical, fluorescence intensity, coupled assay (AID 1209).

Test [2] in a line: cytotoxicity in KRAS-transformed pancreatic duct cells, primary screen, cell-based, fluorescence, HTS (AID 431).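 Also: cell line used: HPDE-C7K.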 The class given is functional. The note with it: Homo sapiens.
A short description of test [3]: Artemis endonuclease inhibitor potency, dose response, biochemical, fluorescence intensity (AID 720701).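 Also: Artemis endonuclease enzyme.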 The class given is functional.
Test [4] concerns the target RNA-editing ligase 1, mitochondrial (Trypanosoma brucei brucei, UniProt P86926). In words: TbREL1 ligase inhibitors, dose response, biochemical, fluorescence, Trypanosoma brucei (AID 1117295). Format: functional.
Test [5] is described as follows: cytotoxicity in HPDE-C7 cells, cell-based, fluorescence, HTS (AID 430). The settings on record: Homo sapiens. Format: functional.
Test [6] can be described thus: HepG2 cell cytotoxicity, dose response, cytotoxicity control, cherry-picked samples (AID 1159577). Format: functional, cell-based.
Test [7] is described as follows: P. falciparum Dd2 growth inhibitors, dose response, SYBR Green, cherry-picked samples (AID 1159567). The class given is functional, cell-based.
The next test concerns the target Paired box protein Pax-8 (Homo sapiens, UniProt Q06710). As to the kind of experiment: inhibitors of PAX8-driven TPO luciferase reporter, dose response, RMG-I cells, cherry-pick (AID 687027).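 Also: luciferase reporter driven by Pax8 target thyroperoxidase promoter measured by SteadyGlo luminescence.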 The class given is functional, cell-based.
Test [8] can be described thus: non-specific cell cytotoxicity, dose response, cytotoxicity control for PAX8 inhibitor project, plate reader, dry powder samples (AID 743021). The class given is functional, cell-based.
A short description of test [9]: A2780 ovarian cancer cell cytotoxicity, dose response, cytotoxicity control, plate reader, dry powder samples (AID 743046). The class given is functional, cell-based.
The nature of test [10]: cytotoxicity in OVCAR8 ovarian cancer cells, dose response, PAX8 project, cell-based, plate reader, dry powder samples (AID 743197). The class given is functional. The note with it: OVCAR-8.
Test [11] in a line: IGROV1 ovarian cancer cell cytotoxicity, dose response, PAX8 inhibitor project, plate reader, dry powder samples (AID 743043). Format: functional, cell-based. The note with it: IGROV-1.
Test [12] in a line: NIH:OVCAR-3 ovarian cancer cell cytotoxicity, dose response, PAX8 inhibitor project, plate reader, dry powder samples (AID 743044). The class given is functional, cell-based.
The target in test [13] is 5-hydroxytryptamine receptor 1A (Homo sapiens, UniProt P08908). The class given is functional.
5-hydroxytryptamine receptor 1A, sequence (P08908 whole entry): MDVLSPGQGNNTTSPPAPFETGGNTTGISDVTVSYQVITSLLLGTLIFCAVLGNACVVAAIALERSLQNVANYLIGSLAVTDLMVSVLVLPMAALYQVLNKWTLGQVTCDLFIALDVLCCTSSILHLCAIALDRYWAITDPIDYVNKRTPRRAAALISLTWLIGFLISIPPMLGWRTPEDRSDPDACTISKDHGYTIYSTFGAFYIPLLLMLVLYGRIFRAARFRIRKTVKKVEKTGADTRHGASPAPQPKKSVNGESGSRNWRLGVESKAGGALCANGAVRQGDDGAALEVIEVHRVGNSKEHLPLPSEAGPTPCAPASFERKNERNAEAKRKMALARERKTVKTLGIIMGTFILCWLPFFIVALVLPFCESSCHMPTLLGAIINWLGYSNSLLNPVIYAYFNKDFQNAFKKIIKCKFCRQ
The target in another test is T2, Protein skinhead-1 (Caenorhabditis elegans, UniProt P34707).
T2 sequence (P34707 whole entry): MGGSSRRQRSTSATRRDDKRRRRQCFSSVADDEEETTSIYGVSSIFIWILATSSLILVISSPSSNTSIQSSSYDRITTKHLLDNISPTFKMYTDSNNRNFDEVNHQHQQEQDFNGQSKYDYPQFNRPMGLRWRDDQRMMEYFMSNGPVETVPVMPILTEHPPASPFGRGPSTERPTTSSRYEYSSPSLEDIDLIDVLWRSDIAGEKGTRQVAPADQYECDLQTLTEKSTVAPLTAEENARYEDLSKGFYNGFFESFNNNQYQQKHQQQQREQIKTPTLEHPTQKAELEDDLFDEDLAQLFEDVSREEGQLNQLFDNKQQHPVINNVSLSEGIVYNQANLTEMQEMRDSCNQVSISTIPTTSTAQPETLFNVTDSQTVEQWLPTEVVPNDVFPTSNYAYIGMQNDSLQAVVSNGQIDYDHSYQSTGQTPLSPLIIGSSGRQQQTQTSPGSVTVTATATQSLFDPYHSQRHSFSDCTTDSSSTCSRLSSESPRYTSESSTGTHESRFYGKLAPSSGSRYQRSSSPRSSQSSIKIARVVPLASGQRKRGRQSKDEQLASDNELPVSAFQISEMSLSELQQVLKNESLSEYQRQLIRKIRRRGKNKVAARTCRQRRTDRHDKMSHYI
The class given is functional.

The nature of test [14]: P. falciparum Dd2 blood-stage growth inhibition, dose response, SYBR Green fluorescence, erythrocytes, dry powder, set 2 (AID 1159574). The class given is functional, cell-based.
Test [15] deals with Heat shock protein HSP 90-alpha (Homo sapiens, UniProt P07900). In words: Luminescence-based dose response biochemical high throughput screening assay for inhibitors of the Heat Shock Protein 90 (HSP90). [Related pubchem assays: 1831 (Summary AID.), 1846 (Confirmation screen.), 1789 (Primary screen.)].
In the next test the test system is H4. As to the kind of experiment: Luminescence Cell-Based Dose Response HTS to Identify Activators of 5'UTR Stem-Loop Driven Prion Protein mRNA Translation in H4 Neuroglioblastoma Cells. [Related pubchem assays: 1829 (Project Summary), 1814 (Primary HTS)]. The class given is functional. The settings on record: Homo sapiens.
The nature of test [16]: Luminescence Cell-Based Dose Response HTS to Identify Activators of Luciferase Translation or Activity in H4 […] Cells. [Related pubchem assays: 1829 (Project Summary), 1814 (Primary HTS)]. Format: functional.
A short description of test [17]: Luminescence Cell-Based Dose Confirmation HTS to Identify Activators of 5'UTR Stem-Loop Driven Alpha-Synuclein mRNA Translation in H4 Neuroglioblastoma Cells. [Related pubchem assays: 1829 (Project Summary), 1814 (Primary HTS)]. The class given is functional.
Test [18] in a line: HEp-2 cell cytotoxicity, dose response, cytotoxicity control for RSV inhibitor project, HTS (AID 2410). Format: functional. The note with it: human respiratory syncytial virus.
Test [19] can be described thus: inhibitors of SNCA 5'UTR-driven reporter translation, confirmation, H4 neuroglioma cells, luminescence (AID 1988). The class given is functional, cell-based.
Test [20] in a line: Luminescence Cell-Based Dose Response HTS to Identify Inhibitors of 5'UTR Stem-Loop Driven Prion Protein mRNA Translation in H4 Neuroglioblastoma Cells. [Related pubchem assays: 1827 (Project Summary), 1813 (Primary HTS)]. The class given is functional.
Test [21] is described as follows: inhibitors of firefly luciferase expression or activity, dose response, H4 neuroglioma cells, luminescence (AID 1990). Format: functional, cell-based.
The test system of another test is Vero. As to the kind of experiment: host cell cytotoxicity of antiviral hits, dose response, cytotoxicity control for West Nile virus antiviral project, secondary assay (AID 1650). Format: functional. The settings on record: Chlorocebus sabaeus.
The target in test [22] is Sphingosine 1-phosphate receptor 1 (Homo sapiens, UniProt P21453). In words: Cell-membrane dose response assay to identify antagonists of the Sphingosine 1-Phosphate receptor 1 (S1P1). The class given is functional.
Sphingosine 1-phosphate receptor 1, sequence (P21453 whole entry): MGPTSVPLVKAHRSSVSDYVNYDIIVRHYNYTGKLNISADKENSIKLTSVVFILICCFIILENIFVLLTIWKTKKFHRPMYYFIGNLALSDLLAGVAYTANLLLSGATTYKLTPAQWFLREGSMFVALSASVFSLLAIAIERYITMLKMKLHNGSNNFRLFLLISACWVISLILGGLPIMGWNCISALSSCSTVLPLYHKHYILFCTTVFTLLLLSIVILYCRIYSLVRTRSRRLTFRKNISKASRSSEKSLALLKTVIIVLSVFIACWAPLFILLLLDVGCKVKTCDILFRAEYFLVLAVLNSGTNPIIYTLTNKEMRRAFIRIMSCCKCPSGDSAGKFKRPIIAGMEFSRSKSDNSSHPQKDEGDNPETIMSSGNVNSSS

RNA-editing ligase 1, mitochondrial, sequence (P86926 whole entry): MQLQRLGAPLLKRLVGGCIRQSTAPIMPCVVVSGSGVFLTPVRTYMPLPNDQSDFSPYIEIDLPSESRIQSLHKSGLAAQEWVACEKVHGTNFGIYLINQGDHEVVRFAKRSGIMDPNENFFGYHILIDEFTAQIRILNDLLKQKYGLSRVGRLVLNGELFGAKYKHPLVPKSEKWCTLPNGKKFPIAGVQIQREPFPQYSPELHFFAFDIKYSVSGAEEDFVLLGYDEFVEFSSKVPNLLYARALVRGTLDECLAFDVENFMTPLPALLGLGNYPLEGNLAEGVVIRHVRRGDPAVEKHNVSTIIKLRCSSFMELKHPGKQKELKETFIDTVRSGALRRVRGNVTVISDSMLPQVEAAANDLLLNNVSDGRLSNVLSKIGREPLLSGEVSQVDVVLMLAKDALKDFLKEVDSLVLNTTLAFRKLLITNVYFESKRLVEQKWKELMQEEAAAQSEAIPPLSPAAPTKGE
Paired box protein Pax-8, sequence (Q06710 whole entry): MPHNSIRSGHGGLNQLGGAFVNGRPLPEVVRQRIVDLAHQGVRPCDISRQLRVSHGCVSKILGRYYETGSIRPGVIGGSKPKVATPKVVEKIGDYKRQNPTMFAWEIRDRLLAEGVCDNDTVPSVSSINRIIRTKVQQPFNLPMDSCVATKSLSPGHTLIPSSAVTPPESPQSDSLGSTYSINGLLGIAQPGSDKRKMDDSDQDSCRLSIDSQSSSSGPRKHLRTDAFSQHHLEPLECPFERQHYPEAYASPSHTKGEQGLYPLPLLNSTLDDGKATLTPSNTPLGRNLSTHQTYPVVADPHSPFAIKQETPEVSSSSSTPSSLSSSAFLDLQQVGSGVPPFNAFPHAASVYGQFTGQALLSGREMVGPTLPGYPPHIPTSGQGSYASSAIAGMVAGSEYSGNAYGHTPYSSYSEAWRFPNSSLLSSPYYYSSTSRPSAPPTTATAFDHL

By IC50 is commonly meant the concentration that inhibits the measured activity by half. Regarding `CC1(C(=O)CSc2nc[nH]n2)CCC(=O)O1` (stereo unspecified), in test [1], the concentration for half-maximal inhibition (IC50) is > 50 µM (not active).

For orientation: EC50 means the concentration needed to bring the measured effect to its halfway point. On to `Nc1c(C(=O)NC2CCCC2)c2nc3ccccc3nc2n1CC1CCCO1` (stereo unspecified), for which the EC50 in [2] is 13.2 µM (active); in test [5], 14.4 µM (active). The IC50 in test [3] is > 20 µM (inactive); in [4], 21.1 µM (inactive).

For orientation: AC50 means the concentration giving half of the maximal activity seen. For `Cc1cccc(S(=O)(=O)N2CCCCN3[C@@H](CO)[C@@H](c4ccc(-c5ccccc5)cc4)[C@@H]3C2)c1`, the AC50 is 19.8 µM (active) in test [6] and 1.26 µM (active) in test [7].

`C[C@H](CO)N1C[C@H](C)[C@H](CN(C)Cc2ccc(C(F)(F)F)cc2)OCCCC[C@H](C)Oc2ccc(NC(=O)Cc3ccccc3)cc2C1=O`: the AC50 was 6.42 µM (active) at Paired box protein Pax-8; 69.3 µM (active) in [8]; 49 µM (active) in test [9]; 67 µM (active) in test [10]; 25.6 µM (active) in test [11]; 35.4 µM (active) in test [12].

Take `O=C(COC(=O)CCC1CCCC1)Nc1ccc(Cl)cn1`: in test [13], the EC50 was > 50 µM (not active). On Protein skinhead-1, the IC50 is > 100 µM (inactive).

As to `COc1cccc(C#Cc2ccc([C@@H]3[C@H](CO)N4C(=O)CN(C(=O)Cc5ccccc5)C[C@@H]34)cc2)c1`, the AC50 in test [14] was > 20 µM (inactive).

As for `Cc1nc(NC(=O)c2cccc(Cl)c2)sc1C(=O)N1CCCCC1`, in test [15], the 50% inhibitory concentration (IC50) is 6.4 µM (active). The concentration giving a half-maximal response (EC50) in the test on H4 is 20.1 µM (active); in test [16], 14.2 µM (active); in [17] it was 12.2 µM (active).

A word on the CC50: it is the concentration that lowers cell viability or growth by half. With `CC12CC[C@H]3[C@@H](CCC4(O)C[C@H](O)CCC34/C=N/NC(=O)c3ccccc3[N+](=O)[O-])C1(O)CCC2C1=CC(=O)OC1` (stereo partly specified), the results for the cytotoxic concentration (CC50) (in [18]; in the test with Vero) were 12.9 µM (active) and 32 µM (active), respectively. Besides, the results for the EC50 in test [19], in [20] and in test [21] were 8.77 µM (active), 11.9 µM (active) and 11.2 µM (active), respectively.

The Ki is the dissociation constant of the complex between target and ligand, obtained from inhibition or displacement. Take `CCCCCCc1cccc(NC(=O)[C@H](N)CCP(=O)(O)O)c1`: the inhibition constant Ki in [22] was 4.63 µM (active).
